Measurements published in ChEMBL document CHEMBL1201862, “PubChem BioAssay data set” (2004).
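1) Cells in 96-well plates. 2) Compound, 48 h, 5 concentrations. 3) Linear interpolation between surrounding doses. 4) Unreached endpoint = highest concentration. Abbreviation: GI50, concentration required for 50% inhibition of growth.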 Active and inactive are the calls of the source. Rule as the data show it: active = GI50 up to about 1.1 µM and inactive = higher.

Legend:
Experiment in all cases: NCI-60 cell line screen, 48 h
UO-31 = test system: UO-31
NCI-H226 = test system: NCI-H226
SK-MEL-5 = test system: SK-MEL-5
SW-620 = test system: SW-620
MDA-MB-435 = test system: MDA-MB-435
UACC-62 = test system: UACC-62
RXF 393 = test system: RXF 393
PC-3 = test system: PC-3
OVCAR-3 = test system: OVCAR-3
A549 = test system: A549
IGROV-1 = test system: IGROV-1
HCT-116 = test system: HCT-116
RPMI-8226 = test system: RPMI-8226
CCRF-CEM = test system: CCRF-CEM
SR = test system: SR
NCI-H460 = test system: NCI-H460
U-251 = test system: U-251
SF-295 = test system: SF-295
Hs-578T = test system: Hs-578T
NCI/ADR-RES = test system: NCI/ADR-RES
SNB-19 = test system: SNB-19
MDA-N = test system: MDA-N
OVCAR-5 = test system: OVCAR-5
T47D = test system: T47D
M14 = test system: M14
786-0 = test system: 786-0
EKVX = test system: EKVX
Malme-3M = test system: Malme-3M
HCC 2998 = test system: HCC 2998
OVCAR-4 = test system: OVCAR-4
A498 = test system: A498
ACHN = test system: ACHN
DU-145 = test system: DU-145
COLO 205 = test system: COLO 205
BT-549 = test system: BT-549
MDA-MB-231 = test system: MDA-MB-231
SNB-75 = test system: SNB-75
SK-OV-3 = test system: SK-OV-3
HOP-62 = test system: HOP-62
SK-MEL-28 = test system: SK-MEL-28
HT-29 = test system: HT-29
MOLT-4 = test system: MOLT-4
KM12 = test system: KM12
CAKI-1 = test system: CAKI-1
SF-268 = test system: SF-268
NCI-H23 = test system: NCI-H23
NCI-H522 = test system: NCI-H522
SN12C = test system: SN12C
SK-MEL-2 = test system: SK-MEL-2
LOX IMVI = test system: LOX IMVI
MCF7 = test system: MCF7
K562 = test system: K562
HCT-15 = test system: HCT-15
OVCAR-8 = test system: OVCAR-8
TK-10 = test system: TK-10
UACC-257 = test system: UACC-257

Q: Which results are given for CSc1c(C#N)c2n(c3ccccc3[n+]2C)c2ncccc12?
A: GI50 (UO-31): 16.1 µM (inactive); GI50 (NCI-H226): 16.2 µM (inactive); GI50 (SK-MEL-5): 12.9 µM (inactive); GI50 (SW-620): 20.2 µM (inactive); GI50 (MDA-MB-435): 32 µM (inactive); GI50 (UACC-62): 17.6 µM (inactive); GI50 (RXF 393): 17.9 µM (inactive); GI50 (PC-3): 19.1 µM (inactive); GI50 (OVCAR-3): 22.2 µM (inactive); GI50 (A549): 12.5 µM (inactive); GI50 (IGROV-1): 24.7 µM (inactive); GI50 (HCT-116): 24.2 µM (inactive); GI50 (RPMI-8226): 25.4 µM (inactive); GI50 (CCRF-CEM): 24.2 µM (inactive); GI50 (SR): 23.5 µM (inactive); GI50 (NCI-H460): 15.7 µM (inactive); GI50 (U-251): 24 µM (inactive); GI50 (SF-295): 18.9 µM (inactive); GI50 (Hs-578T): 36.7 µM (inactive); GI50 (NCI/ADR-RES): 28.4 µM (inactive); GI50 (SNB-19): 32.6 µM (inactive); GI50 (MDA-N): 21.2 µM (inactive); GI50 (OVCAR-5): 23.2 µM (inactive); GI50 (T47D): 25.8 µM (inactive); GI50 (M14): 21.2 µM (inactive); GI50 (786-0): 17.7 µM (inactive); GI50 (EKVX): 21.7 µM (inactive); GI50 (Malme-3M): 19.4 µM (inactive); GI50 (HCC 2998): 30.1 µM (inactive); GI50 (OVCAR-4): 30.8 µM (inactive); GI50 (A498): 25.8 µM (inactive); GI50 (ACHN): 18.7 µM (inactive); GI50 (DU-145): 13.9 µM (inactive); GI50 (COLO 205): 13.8 µM (inactive); GI50 (BT-549): 28.4 µM (inactive); GI50 (MDA-MB-231): 18.5 µM (inactive); GI50 (SNB-75): 17.3 µM (inactive); GI50 (SK-OV-3): 36.1 µM (inactive); GI50 (HOP-62): 23.4 µM (inactive); GI50 (SK-MEL-28): 21.4 µM (inactive); GI50 (HT-29): 26.7 µM (inactive); GI50 (MOLT-4): 92.5 µM (inactive); GI50 (KM12): 22 µM (inactive); GI50 (CAKI-1): 21 µM (inactive); GI50 (SF-268): 29.4 µM (inactive); GI50 (NCI-H23): 21.5 µM (inactive); GI50 (NCI-H522): 19.5 µM (inactive); GI50 (SN12C): 21.2 µM (inactive); GI50 (SK-MEL-2): 20.1 µM (inactive); GI50 (LOX IMVI): 14.4 µM (inactive); GI50 (MCF7): 15 µM (inactive); GI50 (K562): 37.9 µM (inactive); GI50 (HCT-15): 21.5 µM; GI50 (OVCAR-8): 22.3 µM (inactive)

Q: Which results are given for COC(=O)CCC1(C)C2CCC1/C(=N/O)C2 (stereo not drawn)?
A: GI50 (UO-31): > 100 µM (inactive); GI50 (NCI-H226): > 100 µM (inactive); GI50 (SK-MEL-5): > 100 µM (inactive); GI50 (SW-620): > 100 µM (inactive); GI50 (MDA-MB-435): > 100 µM (inactive); GI50 (UACC-62): > 100 µM (inactive); GI50 (RXF 393): > 100 µM (inactive); GI50 (PC-3): > 100 µM (inactive); GI50 (TK-10): > 100 µM (inactive); GI50 (OVCAR-3): > 100 µM (inactive); GI50 (A549): > 100 µM (inactive); GI50 (IGROV-1): > 100 µM (inactive); GI50 (HCT-116): > 100 µM (inactive); GI50 (RPMI-8226): > 100 µM (inactive); GI50 (CCRF-CEM): > 100 µM (inactive); GI50 (SR): > 100 µM (inactive); GI50 (U-251): > 100 µM (inactive); GI50 (SF-295): > 100 µM (inactive); GI50 (Hs-578T): > 100 µM (inactive); GI50 (NCI/ADR-RES): > 100 µM (inactive); GI50 (SNB-19): > 100 µM (inactive); GI50 (MDA-N): > 100 µM (inactive); GI50 (OVCAR-5): > 100 µM (inactive); GI50 (T47D): > 100 µM (inactive); GI50 (M14): > 100 µM (inactive); GI50 (786-0): > 100 µM (inactive); GI50 (EKVX): > 100 µM (inactive); GI50 (Malme-3M): > 100 µM (inactive); GI50 (HCC 2998): > 100 µM (inactive); GI50 (UACC-257): > 100 µM (inactive); GI50 (OVCAR-4): > 100 µM (inactive); GI50 (A498): > 100 µM (inactive); GI50 (ACHN): > 100 µM (inactive); GI50 (DU-145): > 100 µM (inactive); GI50 (COLO 205): > 100 µM (inactive); GI50 (BT-549): > 100 µM (inactive); GI50 (MDA-MB-231): > 100 µM (inactive); GI50 (SNB-75): > 100 µM (inactive); GI50 (SK-OV-3): > 100 µM (inactive); GI50 (HOP-62): > 100 µM (inactive); GI50 (SK-MEL-28): > 100 µM (inactive); GI50 (HT-29): > 100 µM (inactive); GI50 (MOLT-4): > 100 µM (inactive); GI50 (KM12): > 100 µM (inactive); GI50 (CAKI-1): > 100 µM (inactive); GI50 (SF-268): > 100 µM (inactive); GI50 (NCI-H23): > 100 µM (inactive); GI50 (NCI-H522): > 100 µM (inactive); GI50 (SN12C): > 100 µM (inactive); GI50 (SK-MEL-2): > 100 µM (inactive); GI50 (MCF7): > 100 µM (inactive); GI50 (K562): > 100 µM (inactive); GI50 (HCT-15): > 100 µM; GI50 (OVCAR-8): > 100 µM (inactive)
